Numbered stars: 1 amine (or outer) side, 2 acyl side, 3 side chain; on linkers, the order of the positions; unused ones are H or OH. Square brackets hold non-standard residues; d marks the D form. Peptide text beside a SMILES is read from it. * marks the point of attachment. ξ: configuration not given here. Sta = CC(C)C[C@H](N)[C@@H](O)CC(=O)O; Isovaleryl = CC(C)CC(=O)*; ξR = N=C(N)NCCCC(N)C(=O)O; ξF = NC(Cc1ccccc1)C(=O)O; CO = O=C([*:1])[*:2]
Tests used:
Type in all cases: cell-based, human
[1] = test system: red blood cells from healthy individuals; assay: Cytokine release from red blood cells of healthy individuals incubated with protease inhibitors (27-plex and 21-plex Bio-Plex); details: for effect on cytokine release from healthy red blood cells individually: individual inhibitors at Table 5 concentrations
Method: Blood samples from healthy volunteers were used to evaluate the effect of specific protease inhibitors on proteins from red blood cells. Whole blood was collected from healthy volunteers by venepuncture (n≥3) directly into EDTA vacutainers (k2EDTA vacutainers, BD Biosciences). The fractions of blood were collected and processed at room temperature within 4 hours of collection. For multiplex analysis (BioPlex analysis) the samples were stored at −80° C.
The red blood cells were isolated using dextran sedimentation as follows. Whole blood was centrifuged (1500 g, 10 minutes) and the upper plasma layer was discarded. The remaining cell pellet was resuspended in an equal volume of sodium chloride (0.15 M). Dextran (6% w/v in 0.15 M sodium chloride) was then added to this cellular suspension at a 1:4 ratio (dextran:cell suspension). The solution was left at room temperature for 30 minutes for red blood cell sedimentation to the bottom of the tube. The upper white blood cell rich layer was then discarded and the lower red blood cell fraction isolated. The red blood cell fraction was washed once in phosphate buffered saline (PBS, 500 g, 5 minutes) and the remaining red blood cell pellet was counted (Coulter Act Diff, Beckman Coulter). The red blood cells were then diluted to 400 million cells/mL in PBS and were incubated at 37° C. and 5% CO2 for 24 hours. Some samples were also incubated with the protease inhibitors indicated in Table 5 during the PBS incubation.
(§1) After incubation, the resulting conditioned PBS was isolated by centrifugation (500 g, 5 minutes) and then stored at −80° C. The conditioned PBS samples were then analysed on the multiplex cytokine assays. Two multiplex assays were utilised. The first was a 27-plex human cytokine panel that assays for FGF basic, Eotaxin, G-CSF, GM-CSF, IFN-γ, IL-1β, IL-1ra, IL-2, IL-4, IL-5, IL-6, IL-7, IL-8, IL-9, IL-10, IL-12(p70), IL-13, IL-15, IL-17, IP-10, MCP-1, MIP-1α, MIP-1β, PDGF-BB, RANTES, TNF-α, and VEGF, and the second was a 21-plex human cytokine panel that assays for IL-1α, IL-2Ra, IL-3, IL-12, IL-16, IL-18, CTACK, GRO-α, HGF, IFN-α2, LIF, MCP-3, M-CSF, MIF, MIG, β-NGF, SCF, SCGF-β, SDF-1α, TNF-β, TRAIL (Bio-Plex Pro 27-plex and 21-plex, Bio-Rad). The assays were performed according to manufacturer's instructions using an automated magnetic wash station (BioPlex Pro II, Bio-Rad) for the washing steps. The assays were run on the Luminex® 200™ system (Bio-Rad) and fluorescent values were collected. The calibration curve for each cytokine was analysed with 5 parametric logistic curve regression using BioPlex manager software (ver. 5.0, Bio-Rad, USA).
The fold change was determined for proteins in red blood cell-conditioned PBS at 400 million cells/mL following incubation at 37° C. for 24 hours with protease inhibitor cocktail or individual protease inhibitors from healthy participants. […] Significant differences (p<0.05) were determined using Student T-tests.
To determine the effect of a combination of protease inhibitors on the release of proteins from red blood cells, a protein profile was obtained from healthy red blood cells incubated with protease inhibitor cocktails. […] Healthy red blood cells were incubated with A8127s and the cOmplete protease inhibitor cocktail (Roche).

[2] = test system: red blood cells from individuals having colorectal cancer; assay: Cytokine release from red blood cells of individuals having colorectal cancer incubated with protease inhibitors (27-plex); details: colorectal cancer red blood cells vs no protease inhibitors
Method: Whole blood was collected from volunteers with by venepuncture directly into EDTA vacutainers (k2EDTA vacutainers, BD Biosciences). The fractions of blood were collected and processed at room temperature within 4 hours of collection. For multiplex analysis (BioPlex analysis) the samples were stored at −80° C. prior to analysis. The red blood cells were isolated using dextran sedimentation as follows. Whole blood was centrifuged (1500 g, 10 minutes) and the upper plasma layer was discarded. The remaining cell pellet was resuspended in an equal volume of sodium chloride (0.15 M). Dextran (6% w/v in 0.15 M sodium chloride) was then added to this cellular suspension at a 1:4 ratio (dextran:cell suspension). The solution was left at room temperature for 30 minutes for red blood cell sedimentation to the bottom of the tube. The upper white blood cell rich layer was discarded and the lower red blood cell fraction was isolated. The red blood cell fraction was washed once in phosphate buffered saline (PBS, 500 g, 5 minutes) and the remaining red blood cell pellet was counted (Coulter Act Diff, Beckman Coulter). The red blood cells were then diluted to 400 million cells/mL in PBS and incubated at 37° C. and 5% CO2 for 24 hours. Some samples were also incubated with the individual protease inhibitors in Table 5, a commercial protease inhibitor cocktail (cOmplete, Roche), or the A8127s protease inhibitor cocktail during the PBS incubation. The A8127s protease inhibitor cocktail comprised antipain-dihydrochloride (50 μg/mL); bestatin (40 μg/mL); E-64 (10 μg/mL); leupeptin (5 μg/mL); pepstatin (0.7 μg/mL); phosphoramidon (330 μg/mL); Pefabloc SC (1 mg/mL); EDTA-Na2 (0.5 mg/mL); and aprotinin (2 μg/mL).
as §1, with “minutes). The samples were” for “minutes) and then”, “on” for “on the multiplex cytokine assays. Two multiplex assays were utilised. The first was”, “VEGF” for “VEGF, and the second was a 21-plex human cytokine panel that assays for IL-1α, IL-2Ra, IL-3, IL-12, IL-16, IL-18, CTACK, GRO-α, HGF, IFN-α2, LIF, MCP-3, M-CSF, MIF, MIG, β-NGF, SCF, SCGF-β, SDF-1α, TNF-β, TRAIL”, “27-plex,” for “27-plex and 21-plex,”, “assay was” for “assays were”
Significant differences (p<0.05) were determined using Student T-tests. […]

[3] = test system: red blood cells; assay: Protein profile in red blood cell lysates using cationic salt (21-plex); details: PBS containing 100 mM LiCl vs PBS
Method: Red blood cells were isolated using dextran sedimentation as follows. Whole blood was centrifuged (1500 g, 10 minutes) and the upper plasma layer was discarded. The remaining cell pellet was resuspended in an equal volume of sodium chloride (0.15 M). Dextran (6% w/v in 0.15 M sodium chloride) was then added to this cellular suspension at a 1:4 ratio (dextran:cell suspension). This solution was left at room temperature for 30 minutes for red blood cell sedimentation to the bottom of the tube. After this time the upper white blood cell rich layer and the lower red blood cell fraction were separated and the white blood cells discarded. The lower red blood cell fraction was washed twice in phosphate buffered saline (PBS, 500 g, 5 minutes). The supernatant was discarded, and the red blood cell pellet resuspended in either PBS or PBS containing 100 mM LiCl.
The red blood cells were subjected to 3 freeze-thaw cycles to ensure complete cellular lysis. […] The red blood cell lysates were analysed on a 21-plex human cytokine panel that assays for IL-1α, IL-2Ra, IL-3, IL-12, IL-16, IL-18, CTACK, GRO-α, HGF, IFN-α2, LIF, MCP-3, M-CSF, MIF, MIG, β-NGF, SCF, SCGF-β, SDF-1α, TNF-β, TRAIL (Bio-Plex Pro 27-plex and 21-plex, Bio-Rad). […] The calibration curve for each cytokine was analysed with 5 parametric logistic curve regression using BioPlex manager software (ver. 5.0, Bio-Rad, USA).

[4] = healthy red blood cells, in words

Molecule | effect on cytokine release from healthy red blood cells individually [1] | also measured
CC(C)[C@H](NC(=O)[C@H](CCCN=C(N)N)NC(=O)NC(Cc1ccccc1)C(=O)O)C(=O)NC(C=O)CCCN=C(N)N.Cl.Cl (stereo partly drawn) [Sample ID 3, Antipain-dihydrochloride] ({ξF-CO}-Arg-Val-[ξR]-aldehyde) | significant effect | concentration of IL-1β, IL-8, TNF-α, MIP-1α, G-CSF and IL-6 [2]: decreasing; concentration of released IFN-γ, IL-12(p70), IL-15, IL-17, IL-13, IL-7, IP-10, PDGF-bb and IL-2 [2]: increased
CC(C)C[C@H](NC(=O)[C@@H](O)[C@H](N)Cc1ccccc1)C(=O)O [Sample ID 4, Bestatin] | significant effect | concentration of HGF following red blood cell incubation [1, 4]: dramatically increased; concentration of released IFN-a2, IL-18, MIF, TRAIL, HGF, and IL12-p40 [1, 4]: alters
CC(C)C[C@H](NC(=O)[C@H]1O[C@@H]1C(=O)O)C(=O)NCCCCN=C(N)N [Sample ID 5, E-64] | significant effect | 
CC(=O)N[C@@H](CC(C)C)C(=O)N[C@@H](CC(C)C)C(=O)N[C@H](C=O)CCCNC(=N)N [Sample ID 6, Leupeptin] | significant effect | 
CC(C)CC(=O)N[C@H](C(=O)N[C@H](C(=O)N[C@@H](CC(C)C)[C@@H](O)CC(=O)N[C@@H](C)C(=O)N[C@@H](CC(C)C)[C@@H](O)CC(=O)O)C(C)C)C(C)C [Sample ID 7, Pepstatin] (Isovaleryl-VV[Sta]A[Sta]-OH) | significant effect | concentration of HGF following red blood cell incubation [1, 4]: significantly decreased; effect on concentration of IFN-a2, MIF, and HGF [1, 4]: opposite effect of bestatin
CC(C)C[C@H](NP(=O)(O)O[C@@H]1O[C@@H](C)[C@H](O)[C@@H](O)[C@H]1O)C(=O)N[C@@H](Cc1c[nH]c2ccccc12)C(=O)O [Sample ID 8, Phosphoramidon] | significant effect | 
Cl.NCCc1ccc(S(=O)(=O)F)cc1 [Sample ID 9, Pefabloc SC] | significant effect | concentration of IL-1β, IL-8, IL-9, TNF-α, IL-1ra, MCP-1, MIP-1α, G-CSF and IL-6 [2]: decreasing; released concentration of IL-13 and IL-7 [2]: increased
O=C([O-])CN(CCN(CC(=O)[O-])CC(=O)O)CC(=O)O.[Na+].[Na+] [Sample ID 10, EDTA-Na2] | significant effect | 
[Cl-].[Li+] [lithium chloride] |  | level of several of the proteins in the assay (21-plex human cytokine panel) [3]: increased and/or enhanced
Aprotinin [Sample ID 11] | significant effect | 

From patent publication US11693006B2, “Blood profiling with protease inhibitors” (Sangui Bio Pty. Ltd, priority 2016, dated 2023)
